In the case of `FC(F)(F)Oc1ccc2nc(Cc3cn4ccsc4n3)[nH]c2c1`, the melting point (in general, the temperature, or range, at which the solid turns liquid) lay within 177 to 179 °C.
The result for `Cc1cc(S(=O)(=O)N(CC(N)=O)c2ccc(Cl)cc2Cc2cc(F)ccc2F)c(C)cc1Cl` reads 170 °C.
The result for `O=C(Nc1cccnc1)N1CCN(c2cncc(-c3ccc(F)cc3F)n2)CC1` reads 155 to 156 °C.
`COC(=O)COc1cc2c(c3c1c(C(=O)C(N)=O)c(C)n3Cc1ccccc1)CCC2` showed a melting point of 135 to 138 °C.
The figure for `CCOC(=O)Cn1[nH]c(=O)c2ccccc2c1=O` is 68 to 70 °C; for `CN1CCN(Cc2ccc(C(=O)Nc3cccc(Nc4ncc(C#N)c(-c5cccs5)n4)c3)cc2)CC1` it is 208 to 209 °C; for `O=P(O)(O)C(F)(F)c1ccc(CN(c2ccc(Cl)c(Cl)c2)c2nnc(-c3cccc(Oc4cccc(-c5nnn[nH]5)c4)c3)s2)cc1Br` it is 232 to 235 °C.
The figure for `CCc1c(Sc2cc(C)cc(C)c2)n(C/C=C/CO)c(=O)[nH]c1=O` is 157 to 158 °C.
As for `Clc1cc2nc(CBr)c(CBr)nc2cc1Cl`, the melting point was in the range of 154 to 156 °C.
The figure for `CC1N(CCCCCl)C(=O)C(C)(C)S1(=O)=O` (centres undefined) is 71 to 73 °C; for `CCCc1c(OCCCCCC(=O)c2ccc3cc(O)c(O)cc3c2)ccc(C(=O)O)c1O` it is 205 to 207 °C.
With `COc1ccc(CSc2c(O)cc(-c3ccccc3)oc2=O)cc1`, the melting point was 168 to 170 °C.
The result for `CC(C(=O)O)c1ccc(Nc2ccc(Cl)cc2)cc1` (centres undefined) reads 106 to 109 °C.
For the compound `ClCc1ccc(OCCC(c2ccccc2)(c2ccccc2)c2ccccc2)cc1`, the melting point fell in the range of 91 to 95 °C.
The result for `COC(=O)c1ccc(O)c(-n2cccc2C=O)c1` reads 147 to 148 °C.
Compound `CC=Cc1c(C(C)C)nc(C(C)C)c(CO)c1-c1ccc(F)cc1` yielded a melting point of 46 to 47 °C.
In the case of `COc1cc2c(cc1OC)-c1c(O)c(OC)cc3c1C(C2)CN(C)C3` (centres undefined), the melting point was in the range of 196 to 210 °C.
On to `N#CC1(c2ccc(F)cc2)CCC(N2CCC3(CC2)C(=O)NCN3c2ccccc2)CC1` (centres undefined), for which the melting point is 236 °C.
The result for `O=C1c2ccccc2C(=O)N1CCON1CCNC1=Nc1c(Cl)cccc1Cl` reads 129 to 130 °C.
The result for `CS(=O)c1cc(OCC(O)CNC2CCN(c3ccc(NS(=O)(=O)c4ccc(Br)cc4)cn3)CC2)ccc1O` (centres undefined) reads 147 °C; that for `O=c1[nH]c2ncc(-c3ccc(F)cc3)nc2c(O)c1-c1c(F)cc(F)cc1F`, 285 to 288 °C; that for `CCOC(=O)c1csc(NC(=O)c2cc(C(C)(C)C)c(O)c(C(C)(C)C)c2)n1`, 233 to 235 °C.
In turn, `CN(C)C(=O)c1ccccc1I` came in with a melting point of 33 to 36 °C.
Take `COc1cc(OC)nc(NC(=O)NS(=O)(=O)c2ccccc2C(=O)O)n1`: the melting point is 155 to 157 °C.
Compound `CCCCOc1ccc(C(C)NC(=O)NO)cc1` (centres undefined) came in with a melting point of 125 to 127 °C.
As for `COc1cc(CCNC=O)cc2c1OCO2`, the melting point was in the range of 108 to 110 °C.
The result for `NCC(C(=O)O)c1c[nH]c2cc(Cl)ccc12` (centres undefined) reads 245 to 247 °C.
Consider `CCOC(=O)c1ccc2cc(Cl)ccn2c1=O`, for which the melting point fell in the range of 161 to 164 °C.
The compound `CC(C)(C)OC(=O)NCc1ccccc1` yielded a melting point of 55.5 to 56.5 °C.
On to `OC(CSc1ncnc2[nH]ncc12)CN1CCN(C(c2ccc(Cl)cc2)c2ccc(Cl)cc2)CC1` (centres undefined), for which the melting point lay in the range of 115 to 118 °C.
For the compound `O=C1CCCc2cc(F)cc(Sc3ccccc3)c21`, the melting point was in the range of 112 to 113 °C.
The figure for `CC1(C)CCC(C)(C)c2cc(-c3cc(CO)cc(-c4ccc(C(=O)O)cc4)c3)ccc21` is 213 °C.
For the compound `NC(=O)OCC(Cc1ccccc1)NC(=O)C1CCN(c2c(Cl)cncc2Cl)CC1` (centres undefined), the melting point lay within 147 to 149 °C.
Compound `Cc1ccc(S(=O)(=O)OCC2Cc3cc(Cl)c4c(c3O2)CCC4)cc1` (centres undefined) gave a melting point of 82 to 84 °C.
For the compound `O=C(CCl)NCC(O)(c1ccccc1)c1ccccc1`, the melting point was in the range of 178 to 180 °C.
Consider `OCc1nc(-c2ccc3nc(-c4ccc(Cl)cc4)cn3c2)cs1`, for which the melting point is 190 to 192 °C.
Compound `CCCOc1nn(Cc2ccc(OCc3nc(-c4ccccc4)oc3C)cc2)cc1CCC(=O)O` displayed a melting point of 108 to 109 °C.
The compound `CC(=O)OC1COC(Br)C(OC(C)=O)C1OC(C)=O` (centres undefined) displayed a melting point of 92 °C.
The result for `Cc1cc2[nH]c3ccccc3n2n1` reads 250 to 252 °C; that for `Cn1c(C(F)(F)F)cc(=O)n(-c2ccc3snc(COCC(=O)O)c3c2)c1=O`, 191 to 192 °C; that for `c1ccc(COc2cc3ccncc3cc2OCc2ccccc2)cc1`, 97 °C.
`COc1ccc(O)c(C(=O)Nc2ccccc2C(=O)NCCCC(=O)O)c1` gave a melting point of 191 to 193 °C.
The result for `COC(=O)c1cc(C(=O)N2CCC(C(N)=O)CC2)c2cc(Cc3ccc(F)cc3)cnc2c1O` reads 235 to 238 °C; that for `Fc1cc2c(Nc3ccc(Br)c(Br)c3)ncnc2cn1`, 262 to 264 °C; that for `Cc1cc(=O)oc2c(C)c(O)c([N+](=O)[O-])cc12`, 230 to 232 °C.
The figure for `CONS(=O)(=O)c1ccc(Cl)c(C(F)(F)F)c1` is 88 to 90.5 °C; for `Cn1ncc2c(c1=O)SCCNC2Cc1ccc(Cl)cc1` (centres undefined) it is 106 to 109 °C.
In turn, `CCCCCCCCC=CCCCCCCCC(N)=O` came in with a melting point of 68 °C.
The compound `Cc1cccc(-c2nc3ccccn3c2-c2ccnc(-c3ccc(N4CCOCC4)cc3)c2)n1` came in with a melting point of 190 °C.
`CC(C)c1cccc(C(C)C)c1NC(=O)NC1COc2ccccc2C1` (centres undefined) returned a melting point of 186 to 188 °C.
In turn, `S=C1CC2Cc3ccc(Cl)cc3C2N1` (centres undefined) registered a melting point of 225 to 227 °C.
The result for `CCc1cc(C)cc(CC)c1C1C(=O)CC(CC(C)S(=O)CC)CC1=O` (centres undefined) reads 58 to 61 °C; that for `Cc1ccc(C(=O)Nc2cccc(C(F)(F)F)c2)cc1-c1ccc2ccncc2c1`, 157 to 159 °C.
In the case of `O=C(C=Cc1cc(F)cc(F)c1)c1cnc2sc3c(n12)CCCCC3`, the melting point lay within 207 to 209 °C.
Compound `CC(C)(C)OC(=O)N1CCC(c2cc(C(F)(F)F)ccc2N)CC1` displayed a melting point of 120 °C.
The figure for `CC(C)(C)CC1NC(C(=O)NC2CCC(O)CC2)C(c2cccc(Cl)c2F)C12C(=O)Nc1cc(Cl)ccc12` (centres undefined) is 176 °C; for `[N-]=[N+]=NC(C(=O)O)C1c2ccccc2CCc2ccccc21` (centres undefined) it is 101 to 102 °C.
On to `CN(C)C(=O)c1c(Oc2ccccc2)cccc1Oc1ccccc1`, for which the melting point fell in the range of 109 to 111 °C.
As for `CCOC(=O)N1CCc2cc(OC)c(OC)cc2CC1`, the melting point lay in the range of 91 to 93 °C.
`CN(C)C1(c2ccc(C(C)(C)C)cc2)CCC(=O)CC1` showed a melting point of 82.5 to 87 °C.
The figure for `CCCc1c(OCC(=O)OCC)ccc(C(C)=O)c1O` is 61 to 64 °C; for `COc1cc2cnc(O)nc2cc1OC` it is 260 to 263 °C; for `O=C(O)c1ccc(-c2cccc3ccccc23)cc1` it is 221 to 224 °C.
The compound `COC(=O)c1ncc(Cl)nc1NCc1ccc(OC)c(Cl)c1` showed a melting point of 149 to 151 °C.

(Values after a melting point compilation (Tetko et al.; mined from patent text by program, amines drawn as free bases though some values may be those of a salt).)
